According to patent publication US6610702B2, “Ammonium salts of inositol hexaphosphate, and uses thereof” (GMP Oxycell, Inc., priority 2000, dated 2003):
Structures can show the parent of a compound that is named as a salt. Where two headings read alike, the source gives them in different places.

How the values were obtained:
stripped hemoglobin = stripped hemoglobin (Homo sapiens, UniProt P68871); details: pH 7.4, cited from earlier work
whole blood [1] = experiment: P50 of whole blood pre-incubated with effector (Hemox Analyzer); assay type: cell-based
Method: Whole blood was collected from one subject. The blood was stored in a Vacutainer with Solution A (ACD) and stored at 4-8° C.
Preparation of Effector Stock: Effector stock was prepared at 100-120 mM (Molal solution) using water or Bis-Tris Buffer. Effector characteristics prior to incubation were:
Incubation: Whole blood (75-300 μL) was incubated with 200 μL of effector at 37° C. for 5-10 min. (see Summary of Results below).
(§1) Washes: After incubation of whole blood with/without effector, blood cells were washed four times with Saline buffer or HBS (BSA) by centrifugal pelleting to remove exogenous effector and to evaluate hemolysis. After final centrifugation, pellet was not resuspended.
Blood Oxygen Dissociation Reading: Blood Oxygen Dissociation of samples were determined using a Hemox Analizer Model B (TCS Medical Products Company, New Hope, Pa.). The sample chamger contained:
10-20 μL Pelleted Blood Cells incubated with Effector
All readings were made at 36.7-37.2° C. and at pH 7.28-7.32. The P50s were calculated from the Dissociation Curves compared to same day control P50.

red blood cells = experiment: hemolysis of red blood cells on incubation of whole blood with effector; assay type: cell-based
Method: as §1

[2] = 1-octanol/aqueous phase partition coefficients of IHP salts measured by 31P-NMR; assay type: physicochemical
Description: Partition coefficients measurements. We synthesized a first series of IHP derivatives, ionically associated to different aliphatic and aromatic amines as well as amino-esters. Taking advantage of the 6 phosphate groups present in the IHP molecule, we measured, by ^31P-NMR, the partition coefficients of IHP salts between a 1-octanol phase and two different aqueous phases: water and human serum. In FIG. 11 are represented the structures of the different amines preassociated to IHP and the corresponding partition coefficients Kow and Kos. These coefficients are measured after equilibration, at a concentration of 30 mM, close to the typical concentration employed for the biological evaluations (the standard concentration used for O2-dissociation curve measurements is 22 mM).
Choice of the aqueous phases. […] To be even closer to physiological conditions, we pushed this investigation further by measuring 1-octanol/human serum partition coefficients Kos. […] Therefore, we only measured Kos's when Kow values were significant. To illustrate this observation we compared the partitions of 2 IHP derivatives, SV75 and SV131, in different aqueous systems: water, artificial serum (for its composition, see the Experimental section) without and with albumin, and human serum.
Human serum was purchased at the “Centre de Transfusion Sanguine de Strasbourg”. Artificial serum was based on blood composition : [Na^+]=140 mM, [Mg^2+]=1 mM, [K^+]=5 mM, [Ca^2+]=1 mM, [Cl^−]=106 mM, [PO4^3−]=1 mM, [SO4^2−]=0.5 mM, [CO3^2−]=30 mM, [Br^−]=0.5 mM, bovine serum albumin (fraction V, >98%) 30 g.l^−1, pH=7.41.
Partition coefficients. […] 1 ml of 1-octanol was then added and each sample was shaken at 36 rpm during 12 hours. The equilibrated biphasic solutions were centrifuged for 2 hours at 3000 rpm. 350 μl of the octanolic phase was first taken off with a syringe and put directly in the NMR tube. 350 μl of the aqueous phase was then taken off. ^31P-NMR spectra were performed on a Bruker AC-300 apparatus. An external standard (triphenylphosphine oxide, 60 mM in d6-DMSO) was placed inside the NMR tubes to allow both the locking process of the apparatus and an accurate integration of IHP peaks. Partition coefficients were determined as the ratio of IHP integrations, relative to the external standard, in the octanol and aqueous phases.

whole blood [3] = experiment: P50 shift on whole blood, first library (Hb-O2 dissociation curve); assay type: cell-based; details: 220 mOsM, control IHP sodium form, 37° C.
Method: In FIG. 14 the different IHP derivatives have been classified by amine types, the number of cations per IHP molecule as well as the reference number are indicated beside each amine drawings. The P50 shift values have to be compared to the control experiment (underlined), corresponding to a test performed in the same conditions but with IHP, sodium form. P50 values have been measured in Professor Nicolau's laboratory in Boston (bioassay conditions: 75 μl of whole blood was incubated 2 minutes with 300 μl of a 50 mM solution of IHP derivatives. The system was then washed and 20 μl were used for measurement of the Hb-O2 dissociation curve at 37° C.). See also FIGS. 15-17 for tables of P50 values at various osmolarities of whole blood, and free hemoglobin that has been pre-incubated with various ammonium salts of inositol hexaphosphate.

Free Hemoglobin = Free Hemoglobin (Homo sapiens, UniProt P68871); experiment: P50 of free hemoglobin in the presence of effector; assay type: biochemical; details: fHb
[4] = 1-octanol/water, concentration of 30 mM
[5] = 0.25 umoles EFF, control P50 16 mmHg, 37° C.

Sequence of Free Hemoglobin (P68871 2-147 limits assumed): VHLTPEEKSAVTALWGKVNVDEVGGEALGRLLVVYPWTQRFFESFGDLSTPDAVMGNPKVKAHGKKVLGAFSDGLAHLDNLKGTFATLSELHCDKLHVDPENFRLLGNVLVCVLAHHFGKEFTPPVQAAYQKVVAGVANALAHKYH
Sequence of Free Hemoglobin (P69905 2-142 partner limits assumed): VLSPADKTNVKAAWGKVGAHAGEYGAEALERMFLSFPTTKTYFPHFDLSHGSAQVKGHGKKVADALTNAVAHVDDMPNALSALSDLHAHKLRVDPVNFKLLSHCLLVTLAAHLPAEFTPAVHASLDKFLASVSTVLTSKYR
Sequence of stripped hemoglobin (P68871 2-147 limits assumed): as the sequence (P68871 2-147 limits assumed) above
Sequence of stripped hemoglobin (P69905 2-142 partner limits assumed): as the sequence (P69905 2-142 partner limits assumed) above

Molecule: O=C(O)C(COP(=O)(O)O)OP(=O)(O)O (stereo not shown) [2,3-Diphosphoglycerate]
- half-saturation pressure P(O2) (½) of stripped hemoglobin (stripped hemoglobin; 25 C., stripped hemoglobin alone 4.3): 12.0 mm Hg
- half-saturation pressure P(O2) (½) of stripped hemoglobin (stripped hemoglobin; 37 C., stripped hemoglobin alone 9.3): 23.7 mm Hg

Molecule: NC1CCCCC1.NC1CCCCC1.NC1CCCCC1.NC1CCCCC1.NC1CCCCC1.NC1CCCCC1.NC1CCCCC1.NC1CCCCC1.NC1CCCCC1.O=P([O-])([O-])OC1C(OP(=O)([O-])O)C(OP(=O)(O)O)C(OP(=O)(O)O)C(OP(=O)(O)O)C1OP(=O)(O)O.[Na+].[Na+].[Na+] (stereo not shown) [ICP6, nona cyclohexylammonium tri sodium inositol hexaphosphate]
- P50 EFF:WB (whole blood [1]; EFF 30 mM, EFF:WB 22 mM, 220 mOsM, pH 7.23, ratio 1:0.375, control WB 27.5, 37 C.): 39 mmHg

Molecule: CCC(C)C(N)C(=O)OC(C)(C)C.CCC(C)C(N)C(=O)OC(C)(C)C.CCC(C)C(N)C(=O)OC(C)(C)C.CCC(C)C(N)C(=O)OC(C)(C)C.CCC(C)C(N)C(=O)OC(C)(C)C.CCC(C)C(N)C(=O)OC(C)(C)C.CCC(C)C(N)C(=O)OC(C)(C)C.CCC(C)C(N)C(=O)OC(C)(C)C.O=P(O)(O)OC1C(OP(=O)(O)O)C(OP(=O)(O)O)C(OP(=O)(O)O)C(OP(=O)(O)O)C1OP(=O)(O)O (stereo not shown) [SV57, Inositol hexaphosphate, octa isoleucine-tbuthyl-ester]
- hemolysis of red blood cells (red blood cells; first library bioassay on whole blood): fast hemolysis

Molecule: NC1CCCCCC1 [SV75, Inositol hexaphosphate, nona-cycloheptylammonium salt]
- Koas (artificial serum with albumin) ([2]; 1-octanol/artificial serum with albumin, at 18 mM): 0.041
- Koa (artificial serum without albumin) ([2]; 1-octanol/artificial serum without albumin, at 18 mM): 0.088
- Kos (human serum) ([2]; 1-octanol/human serum, at 18 mM): 0.031
- Kow (water) ([2]; 1-octanol/water, at 18 mM): 0.411

Molecule: NC1CCCC1.NC1CCCC1.NC1CCCC1.NC1CCCC1.NC1CCCC1.NC1CCCC1.NC1CCCC1.NC1CCCC1.NC1CCCC1.NC1CCCC1.NC1CCCC1.O=P(O)(O)OC1C(OP(=O)(O)O)C(OP(=O)(O)O)C(OP(=O)(O)O)C(OP(=O)(O)O)C1OP(=O)(O)O (stereo not shown) [SV78, Inositol hexaphosphate, undeca-cyclopentylammonium salt]
- Kow [2, 4]: < 10^−3

Molecule: NC1CCCCC1.NC1CCCCC1.NC1CCCCC1.NC1CCCCC1.NC1CCCCC1.NC1CCCCC1.NC1CCCCC1.NC1CCCCC1.NC1CCCCC1.NC1CCCCC1.NC1CCCCC1.O=P(O)(O)OC1C(OP(=O)(O)O)C(OP(=O)(O)O)C(OP(=O)(O)O)C(OP(=O)(O)O)C1OP(=O)(O)O (stereo not shown) [SV81, Inositol hexaphosphate, undeca-cyclohexylammonium salt]
- shift of the P50 value (compared to the control experiment) (whole blood [3]): 50%

Molecule: C1CCC(NCCN(CCNC2CCCCC2)CCNC2CCCCC2)CC1.C1CCC(NCCN(CCNC2CCCCC2)CCNC2CCCCC2)CC1.C1CCC(NCCN(CCNC2CCCCC2)CCNC2CCCCC2)CC1.O=P(O)(O)O[C@H]1[C@H](OP(=O)(O)O)[C@@H](OP(=O)(O)O)[C@H](OP(=O)(O)O)[C@@H](OP(=O)(O)O)[C@H]1OP(=O)(O)O [SV102, Inositol hexaphosphate, tris tri-(N-cyclohexyl-2-amino-ethyl)-ammonium salt]
- P50 mmHg EFF:WB (whole blood [1]; effector 82 mOsM, EFF:WB 1:0.375, pH 7.2-7.3, control 41.5): 75.0 mmHg
- P50 mmHg EFF:WB (whole blood [1]; effector 321 mOsM, EFF:WB 1:1.5, pH 7.2-7.3, control 40.5): 39.5 mmHg
- P50 mmHg EFF (free hemoglobin) (Free Hemoglobin; [5]): 41.0 mmHg

Molecule: C1CCCC(NCCN(CCNC2CCCCCC2)CCNC2CCCCCC2)CC1.C1CCCC(NCCN(CCNC2CCCCCC2)CCNC2CCCCCC2)CC1.C1CCCC(NCCN(CCNC2CCCCCC2)CCNC2CCCCCC2)CC1.O=P(O)(O)O[C@H]1[C@H](OP(=O)(O)O)[C@@H](OP(=O)(O)O)[C@H](OP(=O)(O)O)[C@@H](OP(=O)(O)O)[C@H]1OP(=O)(O)O [SV137, Inositol hexaphosphate, tris tri-(N-cycloheptyl-2-amino-ethyl)-ammonium salt]
- Kos ([2]; 1-octanol/human serum, concentration of 30 mM): 0.64
- Kow [2, 4]: 2.70
- P50 mmHg EFF:WB (whole blood [1]; effector 268 mOsM, EFF:WB 1:0.375, pH 7.2-7.3, control 29.5): 32.0 mmHg

Molecule: C1CCCC(NCCCN2CCN(CCCNC3CCCCCCC3)CC2)CCC1.C1CCCC(NCCCN2CCN(CCCNC3CCCCCCC3)CC2)CCC1.C1CCCC(NCCCN2CCN(CCCNC3CCCCCCC3)CC2)CCC1.O=P(O)(O)O[C@H]1[C@H](OP(=O)(O)O)[C@@H](OP(=O)(O)O)[C@H](OP(=O)(O)O)[C@@H](OP(=O)(O)O)[C@H]1OP(=O)(O)O [SV141, Inositol hexaphosphate, tri N,N′-di-(3-(N-cyclooctyl-amino)-propyl)-piperazinium salt]
- P50 mmHg EFF:WB (whole blood [1]; effector 221 mOsM, EFF:WB 1:1.5, pH 7.1-7.2, control 25): 25.0 mmHg
- P50 mmHg EFF (free hemoglobin) (Free Hemoglobin; ratio 1:1 (2.5 mM:2.5 mM), pH 7.1-7.2, control P50 10.5 mmHg): 22.0 mmHg
- lysis of whole blood incubated with effector (red blood cells; WB, EFF:WB 1:0.375, no sufficient RBC pellet): Lyses

Molecule: NC1CCCCC1N.NC1CCCCC1N.NC1CCCCC1N.NC1CCCCC1N.NC1CCCCC1N.O=P(O)(O)O[C@H]1[C@H](OP(=O)(O)O)[C@@H](OP(=O)(O)O)[C@H](OP(=O)(O)O)[C@@H](OP(=O)(O)O)[C@H]1OP(=O)(O)O [SV 92, Inositol hexaphosphate, penta (±)-(trans)-1,2-cyclohexyldiammonium salt]
- P50 mmHg EFF:WB (whole blood [1]; effector 84 mOsM, EFF:WB 1:0.375, pH 7.2-7.3, control 41.4): 58.5 mmHg
- P50 mmHg EFF:WB (whole blood [1]; effector 336 mOsM, EFF:WB 1:1.5, pH 7.2-7.3, control 40.5): 38.7 mmHg
- P50 mmHg EFF (free hemoglobin) (Free Hemoglobin; [5]): 45.0 mmHg

Molecule: C1CCC(N2CCCCC2)CC1.C1CCC(N2CCCCC2)CC1.C1CCC(N2CCCCC2)CC1.C1CCC(N2CCCCC2)CC1.C1CCC(N2CCCCC2)CC1.C1CCC(N2CCCCC2)CC1.C1CCC(N2CCCCC2)CC1.C1CCC(N2CCCCC2)CC1.C1CCC(N2CCCCC2)CC1.O=P(O)(O)O[C@H]1[C@H](OP(=O)(O)O)[C@@H](OP(=O)(O)O)[C@H](OP(=O)(O)O)[C@@H](OP(=O)(O)O)[C@H]1OP(=O)(O)O [SV 97, Inositol hexaphosphate, nona N-cyclohexyl-piperidinium salt]
- P50 mmHg EFF:WB (whole blood [1]; effector 111 mOsM, EFF:WB 1:0.375, pH 7.2-7.3, control 41.5): 49.7 mmHg
- P50 mmHg EFF:WB (whole blood [1]; effector 343 mOsM, EFF:WB 1:1.5, pH 7.2-7.3, control 40.5): 40.0 mmHg
- P50 mmHg EFF (free hemoglobin) (Free Hemoglobin; [5]): 46.7 mmHg

Molecule: NC1CCCCCCC1 [cyclooctylammoniums]
- equivalents of cyclooctylammoniums required to reach a Kos value equal to 1 ([2]; constant IHP concentration 22 mM, human serum/octanol, IHP sodium salt in serum, ammonium hydrochloride in organic phase): 8 equivalents

Molecule: Inositol hexaphosphate, octa menthyl-1,8-diammonium salt [SV 89]
- P50 mmHg EFF (free hemoglobin) (Free Hemoglobin; [5]): 41.7 mmHg

Molecule: Inositol hexaphosphate, penta cyclohexyl-(1,3-bismethylammonium) salt [SV 94]
- P50 mmHg EFF (free hemoglobin) (Free Hemoglobin; [5]): 41.0 mmHg
